Consider six compounds from patent publication US5889007A, “10, 11-methanodibenzosuberane derivatives” (priority 1995, dated 1999).

Where two headings read alike, the source gives them in different places.

Series [1] can be described thus: Determination of Stability at Acid pH (HPLC, 0.01N HCl). The series is classed as physicochemical. Particulars: 0.01N HCl (pH 2), 37° C. As to the method: Determination of Stability at Acid pH
Test compounds (15 μg) were dissolved in 3 ml of 0.01N HCl (pH 2) and incubated at 37° C. […] The test compounds and their degradation products were monitored by UV absorption at 240 nm. Disappearance of the parent compound was expressed as a percent peak height relative to time zero, from which t1/2 values were determined graphically, as follows.

The subject of series [2] is multidrug resistance. As to conditions: anticancer drug potentiator; cited from earlier work.
The conditions of series [3]: cited from earlier work.
The conditions of series [4]: cited from earlier work. The source holds these as a separate data set.
Another series relates to drug-resistant malaria. As to conditions: in vitro; cited from earlier work.
The subject of series [5] is multidrug resistance. Particulars: compared with MS-073; cited from earlier work.

Turning to `OC(COc1cccc2ncccc12)CN1CCN(C2c3ccccc3C3C(c4ccccc42)C3(F)F)CC1` (racemic) [(2R,S)-5-{3-[4-(10,11-difluoromethanodibenzosuber-5-yl)piperazine-1-yl]-2-hydroxypropoxy}quinoline], the half-life in series [1] is greater than 72 h.

In turn, `OC(COc1cccc2ncccc12)CN1CCN([C@@H]2c3ccccc3[C@H]3C[C@H]3c3ccccc32)CC1` (relative stereo) [(2R,S)-anti-5-{3-[4-(10,11-methanodibenzosuber-5-yl)piperazin-1-yl]-2-hydroxypropoxy}quinoline] showed a half-life in series [1] of 2.5 h. `OC(COc1cccc2ncccc12)CN1CCN(C2c3ccccc3CCc3ccccc32)CC1` (stereo not shown) [MS-073]: the “activity in in vitro testing” value with multidrug resistance [2] is listed as “highly active”. Moreover, the oral bioavailability result in series [3] (oral) was “poor oral bioavailability”. For the same compound, in series [1], the half-life amounted to 0.25 h. Further, the stability in solution entry in series [4] was “instability problems in solution”. Regarding `COc1ccc(CCN(C)CCCC(C#N)(c2ccc(OC)c(OC)c2)C(C)C)cc1OC` (stereo not shown) [verapamil], in the series on drug-resistant malaria, the “effect in treating drug-resistant malaria” value was “effective in vitro”. As to `OC(COc1cccc2ncccc12)CN1CCN(C2c3ccccc3C3C(Cl)C3c3ccccc32)CC1` [(2R,S)-anti-5-{3-[4-(10,11-chloromethanodibenzosuber-5-yl)piperazine-1-yl]-2-hydroxypropoxy}quinoline], the t1/2 in series [1] was greater than 72 h.

Consider `O=C(C(c1ccccc1)c1ccccc1)N1CCN(CC(O)COc2cccc3ncccc23)CC1` (stereo not shown) [MS-209], for which the oral bioavailability result in series [3] (in vivo, po) was “better stability and oral bioavailability”. Moreover, the effective doses entry in the series with multidrug resistance [5] is “higher effective doses”.
